# Results reported in US20090258041A1, “Protection of Oxidizable Agents” (priority 2005, published 2009).
# Experiment: Stabilization of Vitamin C: spectral absorption at 265 nm after exposure to air with storage in the dark
# Format: physicochemical
# Details: Vitamin C combined with Nanotope AO7 (encapsulated AO7 1.00%, ascorbic acid 1.00% in water phase), phosphate buffer pH 6, exposure to air, 20° C.
# Description: Aqueous solution of Vitamin C (concentration=40.5 mM), buffered at pH=6 (Phosphate buffer, previously evacuated and then flushed with Nitrogen to remove as much Oxygen as possible). a) Standalone Vitamin C: 0.7 mM b) Combination Vitamin C/Nanotope AO7: [table] Absorption measurement with Perkin Elmer Lambda 16; cuvette length d=0.1 cm Irradiation chamber Atlas CPS+; temperature of measurement=35° C. Spectral absorption of Vitamin C (Ascorbic Acid) at its maximum wavelength (Imax=265 nm); maximum extinction at time after exposure to air with storage in the dark. Experiments were done at 20° C.
smiles,measurement,value
"O=C1O[C@H]([C@@H](O)CO)C(O)=C1O [Vitamin C, ascorbic acid]",protection of Vitamin C (maximum extinction at 265 nm),efficiently protected
